Calls of active or inactive are those of the source. The rule behind the calls is not given here. Positions of bridges follow the written chain, without caps; N, C: chain ends. Non-standard residues stand in square brackets, D forms with d. Residues, ends and D or L forms follow the SMILES beside them. Dip = N[C@H](C(=O)O)C(c1ccccc1)c1ccccc1; Chg = N[C@H](C(=O)O)C1CCCCC1; S5 = C=CCCC[C@](C)(N)C(=O)O; NMeA = CN[C@@H](C)C(=O)O; AEEA = NCCOCCOCC(=O)O; βAla = NCCC(=O)O
Key:
[1] = test system: MOLT-4; test: Cytotoxicity against human MOLT4 cells at >100 uM; assay type: cell-based
[2] = test system: MOLT-4; test: Induction of CSL protein degradation in human MOLT4 cells assessed as ratio of CSL to lamin protein level at 60 uM after 6 hrs by Western blot analysis (reference value: 100%); assay type: functional
[3] = organism: Homo sapiens; test: Induction of IAP-mediated NOTCH1 protein degradation in human MOLT4 cells assessed as ratio of NOTCH1 to lamin protein level at 80 uM after 6 hrs by Western blot analysis (reference value: 100%); assay type: cell-based
[4] = test system: MOLT-4; test: Induction of CSL protein degradation in human MOLT4 cells assessed as ratio of CSL to lamin protein level at 80 uM after 6 hrs by Western blot analysis (reference value: 100%); assay type: functional
[5] = organism: Homo sapiens; test: Induction of IAP-mediated NOTCH1 protein degradation in human MOLT4 cells assessed as ratio of NOTCH1 to lamin protein level at 20 uM after 6 hrs by Western blot analysis (reference value: 100%); assay type: cell-based
[6] = test system: MOLT-4; test: Induction of CSL protein degradation in human MOLT4 cells assessed as ratio of CSL to lamin protein level at 20 uM after 6 hrs by Western blot analysis (reference value: 100%); assay type: functional
[7] = test system: MOLT-4; test: Induction of CSL protein degradation in human MOLT4 cells assessed as ratio of CSL to lamin protein level at 50 uM after 6 hrs by Western blot analysis (reference value: 100%); assay type: functional
[8] = organism: Homo sapiens; test: Induction of IAP-mediated NOTCH1 protein degradation in human MOLT4 cells assessed as ratio of NOTCH1 to lamin protein level at 60 uM after 6 hrs by Western blot analysis (reference value: 100%); assay type: cell-based
[9] = test system: MOLT-4; test: Induction of CSL protein degradation in human MOLT4 cells assessed as ratio of CSL to lamin protein level at 100 uM after 6 hrs by Western blot analysis (reference value: 100%); assay type: functional
[10] = organism: Homo sapiens; test: Induction of IAP-mediated NOTCH1 protein degradation in human MOLT4 cells assessed as ratio of NOTCH1 to lamin protein level at 100 uM after 6 hrs by Western blot analysis (reference value: 100%); assay type: cell-based
[11] = test system: MOLT-4; test: Induction of CSL protein degradation in human MOLT4 cells assessed as ratio of CSL to lamin protein level at 70 uM after 6 hrs by Western blot analysis (reference value: 100%); assay type: functional
[12] = organism: Homo sapiens; test: Induction of IAP-mediated NOTCH1 protein degradation in human MOLT4 cells assessed as ratio of NOTCH1 to lamin protein level at 50 uM after 6 hrs by Western blot analysis (reference value: 100%); assay type: cell-based
[13] = organism: Homo sapiens; test: Antagonist activity IAP in human MOLT4 cells assessed as reduction in cIAP1 protein level at 50 to 80 uM after 6 hrs by Western blot analysis; assay type: cell-based
[14] = organism: Homo sapiens; test: Induction of IAP-mediated NOTCH1 protein degradation in human MOLT4 cells assessed as ratio of NOTCH1 to lamin protein level at 70 uM after 6 hrs by Western blot analysis (reference value: 100%); assay type: cell-based

| Compound | Activity [1] | Ratio [2] [%] | Ratio [3] [%] | Ratio [4] [%] | Ratio [5] [%] | Ratio [6] [%] | Ratio [7] | Ratio [8] [%] | Ratio [9] [%] | Ratio [10] [%] | Ratio [11] [%] | Ratio [12] [%] | inhibition [13] | Ratio [14] [%] |
| --- | --- | --- | --- | --- | --- | --- | --- | --- | --- | --- | --- | --- | --- | --- |
| CC[C@H](C)[C@H](NC(=O)[C@H](CCCNC(=N)N)NC(=O)[C@H](CCCNC(=N)N)NC(=O)[C@H](CCCNC(=N)N)NC(=O)[C@H](CC(C)C)NC(=O)[C@H](CCCNC(=N)N)NC(=O)[C@H](CCC(=O)O)NC(=O)CCNC(=O)COCCOCCNC(=O)[C@@H](NC(=O)[C@@H]1CCCN1C(=O)[C@@H](NC(=O)[C@H](C)NC)C1CCCCC1)C(c1ccccc1)c1ccccc1)C(=O)N[C@@]1(C)CCC/C=C\CCC[C@@](C)(C(=O)N[C@@H](CCCNC(=N)N)C(=O)N[C@@H](Cc2cnc[nH]2)C(=O)N[C@@H](Cc2cnc[nH]2)C(=O)N[C@@H](CO)C(=O)N[C@H](C(=O)O)[C@@H](C)O)NC(=O)[C@H](CS)NC(=O)[C@H](CC(C)C)NC1=O (H-[NMeA][Chg]P[Dip][AEEA][βAla]ERLRRRI[S5]LC[S5]RHHST-OH; staple (Z) 14-17) | Toxic | 104 | 77 | 102 | 105 | 105 | 105 - 108% | 106 | 115 | 74 | 115 | 87 to 99 | Active | 99 |
| CC[C@H](C)[C@H](NC(=O)[C@H](CCCNC(=N)N)NC(=O)[C@H](CCCNC(=N)N)NC(=O)[C@H](CCCNC(=N)N)NC(=O)[C@H](CC(C)C)NC(=O)[C@H](CCCNC(=N)N)NC(=O)[C@H](CCC(=O)O)NC(=O)CCN)C(=O)N[C@@H](CCC(=O)O)C(=O)N[C@@H](CC(C)C)C(=O)N[C@@H](CS)C(=O)N[C@@H](CCCNC(=N)N)C(=O)N[C@@H](CCCNC(=N)N)C(=O)N[C@@H](Cc1cnc[nH]1)C(=O)N[C@@H](Cc1cnc[nH]1)C(=O)N[C@@H](CO)C(=O)N[C@H](C(=O)O)[C@@H](C)O (H-[βAla]ERLRRRIELCRRHHST-OH) | Toxic |  |  |  | 101 | 107 | 115% |  | 113 | 108 |  | 118 |  |  |
| CC[C@H](C)[C@H](NC(=O)[C@H](CCCNC(=N)N)NC(=O)[C@H](CCCNC(=N)N)NC(=O)[C@H](CCCNC(=N)N)NC(=O)[C@H](CC(C)C)NC(=O)[C@H](CCCNC(=N)N)NC(=O)[C@H](CCC(=O)O)NC(=O)CCN)C(=O)N[C@@]1(C)CCC/C=C\CCC[C@@](C)(C(=O)N[C@@H](CCCNC(=N)N)C(=O)N[C@@H](Cc2cnc[nH]2)C(=O)N[C@@H](Cc2cnc[nH]2)C(=O)N[C@@H](CO)C(=O)N[C@H](C(=O)O)[C@@H](C)O)NC(=O)[C@H](CS)NC(=O)[C@H](CC(C)C)NC1=O (H-[βAla]ERLRRRI[S5]LC[S5]RHHST-OH; staple (Z) 9-12) | Toxic |  |  |  | 101 | 105 | 94% |  | 93 | 103 |  | 105 |  |  |
